The target in data set [1] is heteromeric rod CNG channels consisting of CNGA1 and CNGB1 subunits (Bos taurus, UniProt Q00194+Q28181). The data set can be described thus: biochemical. The data set is classed as cell-based. The settings on record: 2 mM cGMP; for voltage dependence of block: +50 vs −50 mV. The method, then:
Currents were elicited by a voltage step protocol from 0 to −50 to +50 mV (See FIG. 1) in the presence of 2 mM cGMP or 2 mM cGMP and compound (5 μM). Time scale is shown in the lower left-hand corner of the panel and FIG. 1, and the zero current level is indicated by the dotted line.
The solid line indicates the fit of the equation for block at a single binding site.
Time scale is shown in the lower left-hand corner of the panel and FIG. 1, and the zero current level is indicated by the dotted line. […] Solid line indicates the fit of the equation for block at a single binding site.
The effectiveness of retinal rod CNG channel current block by the disclosed compounds was tested in Xenopus oocyte preparations. Excised, inside-out patches pulled from oocytes expressed heteromeric rod CNG channels consisting of CNGA1 and CNGB1 subunits. […] CNG channel currents were elicited by a voltage step protocol to −50 and +50 mV (FIG. 1). The apparent KD value at each membrane potential was estimated first by determining I+B and I−B at steady state, where I+B is the current in the presence of blocker and I−B is current in the absence of blocker, for different blocker concentrations ([B]).
Ovaries were surgically removed from adult Xenopus laevis females (Xenopus Express; Brooksville, Fla.) anesthetized with ice-cold 0.1% tricaine and 0.1% NaHCO3 solution. Oocytes were chemically released from ovarian follicles in Ca^2+-free Barth's solution (88 mM NaCl, 1 mM KCl, 2.4 mM NaHCO3, 0.82 mM MgSO4, 7.5 mM Tris, 2.5 mM sodium pyruvate, 100 U/mL penicillin, and 100 μg/mL streptomycin, pH 7.4) containing 0.1 U/mL Liberase Blendzymes (Roche, Indianapolis, Ind.). Stages IV and V oocytes were visually sorted and stored in ND-96 (96 mM NaCl, 2 mM KCl, 1.8 mM CaCl2, 1 mM MgCl2, 5 mM HEPES, 2.5 mM sodium pyruvate, 100 U/mL penicillin, and 100 μg/mL streptomycin, pH 7.4) at 16° C. Oocytes were co-injected the following day with 33 ng of CNGA1 and 67 ng of CNGB1 cRNA […] synthesized from linearized pGEM-HE expression vectors containing the channel subunit cDNA sequence (Strassmaier T & Karpen J, J Med Chem 50, 4186-4194, (2007), incorporated by reference herein) using T7 mMESSAGE mMACHINE® (Ambion, Austin, Tex.). Injected oocytes were incubated at 18° C. the first day and 16° C. for the remaining days.
Recordings from inside-out excised patches were made 3-7 days after oocyte injection on an Axopatch 1D® amplifier (Axon Instruments, Foster City, Calif.). Briefly, oocyte vitelline membranes were removed in solution containing 200 mM K aspartate, 20 mM KCl, 1 mM MgCl2, 10 mM EGTA, 10 mM HEPES, pH 7.4. Oocytes were placed in a recording chamber in a solution containing 130 mM NaCl, 2 mM HEPES, 0.02 mM EDTA, 1 mM EGTA, pH 7.6, and borosilicate glass electrodes (1-3 MΩ) were filled with identical solution. Macroscopic currents were filtered at 1 kHz and sampled at 2 kHz using pCLAMP 8.0® software (Axon Instruments). Channels were either fully activated with 2 mM or partially activated with 50 and 100 μM cGMP. […] Glass syringes and Teflon tubing were used to minimize the binding of compounds to surfaces; concentrations passing through the perfusion system were verified by absorbance.

For a further data set, the target named is T1, chymotrypsin (Bos taurus, UniProt P00766).
T1 construct: purchased Worthington Biochemical Co
The data set can be described thus: In vitro hydrolysis by chymotrypsin. The data set is classed as in vitro ADME. On the procedure: All enzymatic assays were performed with 50 μM compound in 0.1M phosphate buffer, pH 7.4, at 37° C. with stirring, unless otherwise noted. Butyrylcholinesterase stock solutions from human serum (Sigma, St. Louis, Mo.) were prepared at 100 U/mL in 0.1 M phosphate buffer, pH 7.4, and stored at −20° C. until use. Hydrolysis was monitored on an 8452A diode array spectrophotometer (Hewlett-Packard). Product peak wavelength absorption was immediately monitored upon addition of compound. Absorbances for complete hydrolysis were determined when there were no further detectable changes. […] All hydrolysis assays were performed in triplicate, and final rate constants are expressed as the mean±SD of the three individually determined rate constants. […] Activity of chymotrypsin (bovine, Worthington Biochemical Co., 190 μg/mL) was verified with 90 μM 4-nitrophenyl acetate in 0.1 M HEPES solution, pH 6.5, at 37° C. with stirring. Hydrolysis product was monitored at 404 nm for 10 min. Activity of proteinase K (from Engyodontium album, Sigma, 165 μg/mL) was verified with 16.5 mg/mL bovine serum albumin in 0.1 M phosphate buffer, pH 7.4, at 37° C. Samples were taken at time point increments up to 2 hours when the reaction reached completion. Samples were analyzed with 12% SDS-PAGE, stained with 0.1% Coomassie Blue.

A further data set has as its target T2, proteinase K (Parengyodontium album, UniProt P06873).
T2 construct: purchased Sigma
Nature of the data set: In vitro hydrolysis by proteinase K. It is filed as in vitro ADME, Engyodontium album. On the procedure:
Hydrolysis products of 4-nitrophenyl acetate and BSA were detected as positive controls.
All enzymatic assays were performed with 50 μM compound in 0.1M phosphate buffer, pH 7.4, at 37° C. with stirring, unless otherwise noted. Butyrylcholinesterase stock solutions from human serum (Sigma, St. Louis, Mo.) were prepared at 100 U/mL in 0.1 M phosphate buffer, pH 7.4, and stored at −20° C. until use. Hydrolysis was monitored on an 8452A diode array spectrophotometer (Hewlett-Packard). Product peak wavelength absorption was immediately monitored upon addition of compound. Absorbances for complete hydrolysis were determined when there were no further detectable changes. […] All hydrolysis assays were performed in triplicate, and final rate constants are expressed as the mean±SD of the three individually determined rate constants. In some experiments with compound 1, samples were taken at the beginning and end of the assay to verify the hydrolysis product and the completion of the reaction by HPLC. These samples were compared to compounds 1 and 3 on a C18 column eluted with 0.1% TFA in water/acetonitrile. Activity of chymotrypsin (bovine, Worthington Biochemical Co., 190 μg/mL) was verified with 90 μM 4-nitrophenyl acetate in 0.1 M HEPES solution, pH 6.5, at 37° C. with stirring. Hydrolysis product was monitored at 404 nm for 10 min. Activity of proteinase K (from Engyodontium album, Sigma, 165 μg/mL) was verified with 16.5 mg/mL bovine serum albumin in 0.1 M phosphate buffer, pH 7.4, at 37° C. Samples were taken at time point increments up to 2 hours when the reaction reached completion. Samples were analyzed with 12% SDS-PAGE, stained with 0.1% Coomassie Blue.

The mark [2] stands for this setting: +50 mV, concentration series of FIG. 4 / FIG. 5, read-out: KD values determined from the fit of the equation.
Setting [3] is: Table 1, +50 mV, mean±SD, not corrected for ion accumulation, read-out: KD(+50).
Where [4] appears, read: Table 1, −50 mV, mean±SD, not corrected for ion accumulation, read-out: KD(−50).
Setting [5] is: −50 mV, concentration series of FIG. 4 / FIG. 5, read-out: KD values determined from the fit of the equation.

Structures are written as SMILES. Read-outs that look alike come from different tables or passages of the source.

heteromeric rod CNG channels consisting of CNGA1 and CNGB1 subunits, sequence (Q00194 whole entry): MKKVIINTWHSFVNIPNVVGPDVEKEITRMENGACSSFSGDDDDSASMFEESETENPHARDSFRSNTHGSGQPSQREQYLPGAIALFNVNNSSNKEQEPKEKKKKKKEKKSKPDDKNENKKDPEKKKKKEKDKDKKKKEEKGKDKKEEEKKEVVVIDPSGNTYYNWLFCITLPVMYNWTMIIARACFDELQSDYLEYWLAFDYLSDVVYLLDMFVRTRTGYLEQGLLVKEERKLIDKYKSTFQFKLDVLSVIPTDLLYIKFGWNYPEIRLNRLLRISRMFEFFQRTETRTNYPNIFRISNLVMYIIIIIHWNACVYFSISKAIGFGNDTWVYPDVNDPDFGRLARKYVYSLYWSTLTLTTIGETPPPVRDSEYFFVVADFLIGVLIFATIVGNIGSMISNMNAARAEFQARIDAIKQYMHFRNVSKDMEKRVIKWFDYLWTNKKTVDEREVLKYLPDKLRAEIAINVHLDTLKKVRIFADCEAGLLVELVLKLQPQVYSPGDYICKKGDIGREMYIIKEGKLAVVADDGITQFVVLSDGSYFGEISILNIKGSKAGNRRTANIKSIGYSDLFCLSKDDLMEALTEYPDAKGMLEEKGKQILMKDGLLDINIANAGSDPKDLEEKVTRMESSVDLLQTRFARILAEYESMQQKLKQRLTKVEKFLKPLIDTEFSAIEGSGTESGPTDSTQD
heteromeric rod CNG channels consisting of CNGA1 and CNGB1 subunits, sequence (Q28181 whole entry): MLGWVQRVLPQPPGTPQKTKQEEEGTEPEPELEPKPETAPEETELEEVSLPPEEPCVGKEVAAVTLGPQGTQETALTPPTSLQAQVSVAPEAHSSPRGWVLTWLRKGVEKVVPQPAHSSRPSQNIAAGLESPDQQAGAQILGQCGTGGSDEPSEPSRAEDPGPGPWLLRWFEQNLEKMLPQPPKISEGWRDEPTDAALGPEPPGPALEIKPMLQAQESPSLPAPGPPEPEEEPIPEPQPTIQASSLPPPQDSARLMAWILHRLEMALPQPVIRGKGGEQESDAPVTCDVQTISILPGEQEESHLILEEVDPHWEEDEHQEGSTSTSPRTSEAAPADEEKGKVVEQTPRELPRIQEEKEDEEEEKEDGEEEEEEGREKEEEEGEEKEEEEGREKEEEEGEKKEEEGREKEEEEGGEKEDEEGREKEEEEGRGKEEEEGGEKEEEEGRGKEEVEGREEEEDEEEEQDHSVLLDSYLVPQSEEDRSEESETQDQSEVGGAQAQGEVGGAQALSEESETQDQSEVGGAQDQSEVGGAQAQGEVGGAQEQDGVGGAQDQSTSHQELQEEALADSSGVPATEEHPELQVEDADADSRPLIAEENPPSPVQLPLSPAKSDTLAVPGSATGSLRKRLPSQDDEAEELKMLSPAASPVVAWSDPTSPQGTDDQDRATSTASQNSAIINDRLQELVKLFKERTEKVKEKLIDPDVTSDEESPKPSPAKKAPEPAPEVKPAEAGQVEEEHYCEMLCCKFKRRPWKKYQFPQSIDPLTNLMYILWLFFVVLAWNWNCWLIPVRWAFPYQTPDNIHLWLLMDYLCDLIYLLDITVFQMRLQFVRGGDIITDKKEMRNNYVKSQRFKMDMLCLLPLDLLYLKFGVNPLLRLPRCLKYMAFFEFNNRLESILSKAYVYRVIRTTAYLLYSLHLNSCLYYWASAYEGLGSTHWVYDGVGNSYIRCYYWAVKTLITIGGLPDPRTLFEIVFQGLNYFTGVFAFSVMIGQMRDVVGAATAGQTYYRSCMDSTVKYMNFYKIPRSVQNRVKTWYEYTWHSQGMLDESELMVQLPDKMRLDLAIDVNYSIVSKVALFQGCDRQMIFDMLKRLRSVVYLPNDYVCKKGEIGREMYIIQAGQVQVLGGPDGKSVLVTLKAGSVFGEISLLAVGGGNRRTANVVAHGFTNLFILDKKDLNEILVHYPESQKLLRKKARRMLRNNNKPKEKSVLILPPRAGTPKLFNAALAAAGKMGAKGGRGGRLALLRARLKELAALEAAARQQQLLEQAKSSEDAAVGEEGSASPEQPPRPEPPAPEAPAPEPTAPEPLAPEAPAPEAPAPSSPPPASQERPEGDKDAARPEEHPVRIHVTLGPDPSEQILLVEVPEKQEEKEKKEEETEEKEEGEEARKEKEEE
T2 sequence (P06873 106-384): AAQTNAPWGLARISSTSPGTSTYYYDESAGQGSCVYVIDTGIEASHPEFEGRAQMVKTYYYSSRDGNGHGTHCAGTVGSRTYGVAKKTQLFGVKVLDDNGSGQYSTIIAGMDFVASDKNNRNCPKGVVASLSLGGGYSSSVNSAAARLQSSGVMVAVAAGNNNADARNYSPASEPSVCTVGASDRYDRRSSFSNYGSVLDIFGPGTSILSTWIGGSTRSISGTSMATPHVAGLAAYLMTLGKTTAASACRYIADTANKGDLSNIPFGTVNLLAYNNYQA

Regarding `CCCCCCCCNc1ccc(C(=O)OCCN(C)C)cc1` [Compound 5, 2-(Dimethylamino)ethyl 4-(Octylamino)benzoate, reference compound], the “voltage dependence of block” value in data set [1] is “appreciably less voltage dependent than compound 1, 6, and 8”. The Kd was determined as 1500 nM in data set [1] (setting [2]); 1000 ± 600 nM in data set [1] (setting [3]); 2400 ± 1400 nM in data set [1] (setting [4]); 800 ± 500 nM in data set [1] (octyl series table, +50 mV, read-out: KD(+50)); 1720 ± 1380 nM in data set [1] (octyl series table, −50 mV, read-out: KD(−50)); 1800 nM in data set [1] (setting [5]).

In the case of `CCCCNc1ccc(C(=S)NCCN(C)C)cc1` [Compound 8, 4-(Butylamino)-N-(2-(dimethylamino)ethyl)benzothioamide], the equilibrium dissociation constant (Kd) in data set [1] (setting [2]) was 500 nM; in data set [1] (setting [3]), 600 ± 300 nM; in data set [1] (setting [4]), 3900 ± 1800 nM; in data set [1] (setting [5]) it was 3700 nM. For the same molecule, at chymotrypsin, the “hydrolysis products with chymotrypsin” value is “not able to generate any detectable hydrolysis products”. Also, the “hydrolysis products with proteinase K” value on proteinase K is given as “not able to generate any detectable hydrolysis products”.

Turning to `CCCCCCCCNc1ccc(C(=S)NCCN(C)C)cc1` [Compound 9, 4-(Octylamino)-N-(2-(dimethylamino)ethyl)benzothioamide], the “voltage dependence of block” value in data set [1] was “appreciably less voltage dependent than compound 1, 6, and 8”. Further, the equilibrium dissociation constant (Kd) in data set [1] (setting [2]) was determined as 1300 nM; in data set [1] (setting [3]), 700 ± 500 nM; in data set [1] (setting [5]), 1800 nM. Further, the “hydrolysis products with chymotrypsin” value on chymotrypsin is given as “not able to generate any detectable hydrolysis products”. For the same molecule, the “hydrolysis products with proteinase K” value at proteinase K is “not able to generate any detectable hydrolysis products”.
